According to patent publication US8846704B2, “Thiopyrimidine-based compounds and uses thereof” (YM Biosciences Austraila Pty Ltd, priority 2007, dated 2014):

Assays:
Type in all cases: biochemical
Flt 4(h) = target: T1, Flt 4(h) (Homo sapiens, UniProt P35916); test: Upstate KinaseProfiler enzyme assay, Flt 4; conditions: 500 nM compound; read-out: Percent inhibition at 500 nM Flt 4(h)
T1 construct: purchased Upstate Biotechnology (Dundee, UK), KinaseProfiler service
Experimental: (§1) Further enzyme assays were conducted at Upstate Biotechnology (Dundee, UK) in the KinaseProfiler™ Assay system.
(§2) The general protocol is as follows. All kinases are pre-diluted to a 10× working concentration prior to addition into the assay. The composition of the dilution buffer for the kinases is 20 mM MOPS pH 7.0, 1 mM EDTA, 0.1% β-mercaptoethanol, 0.01% Brij-35, 5% glycerol, 1 mg/ml BSA. All substrates are dissolved and diluted to working stocks in de-ionised water.

Blk(m) = target: T2, Blk(m) (Mus musculus, UniProt P16277); test: Upstate KinaseProfiler enzyme assay, Blk; conditions: 500 nM compound; read-out: Percent inhibition at 500 nM Blk(m)
T2 construct: purchased Upstate Biotechnology (Dundee, UK), KinaseProfiler service
Procedure, shortened: (§3)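 Standard profiling-service enzyme format. Kinases were brought to ten-fold working concentration in a pH 7.0 buffer of 20 mM MOPS, 1 mM EDTA, 5% glycerol, 1 mg/ml BSA, 0.01% Brij-35 and 0.1% β-mercaptoethanol; substrate working stocks were made in deionised water.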

Bmx(h) = target: T3, Bmx(h) (Homo sapiens, UniProt P51813); test: Upstate KinaseProfiler enzyme assay, Bmx; conditions: 500 nM compound; read-out: Percent inhibition at 500 nM Bmx(h)
T3 construct: purchased Upstate Biotechnology (Dundee, UK), KinaseProfiler service
T3 sequence (P51813 1-675): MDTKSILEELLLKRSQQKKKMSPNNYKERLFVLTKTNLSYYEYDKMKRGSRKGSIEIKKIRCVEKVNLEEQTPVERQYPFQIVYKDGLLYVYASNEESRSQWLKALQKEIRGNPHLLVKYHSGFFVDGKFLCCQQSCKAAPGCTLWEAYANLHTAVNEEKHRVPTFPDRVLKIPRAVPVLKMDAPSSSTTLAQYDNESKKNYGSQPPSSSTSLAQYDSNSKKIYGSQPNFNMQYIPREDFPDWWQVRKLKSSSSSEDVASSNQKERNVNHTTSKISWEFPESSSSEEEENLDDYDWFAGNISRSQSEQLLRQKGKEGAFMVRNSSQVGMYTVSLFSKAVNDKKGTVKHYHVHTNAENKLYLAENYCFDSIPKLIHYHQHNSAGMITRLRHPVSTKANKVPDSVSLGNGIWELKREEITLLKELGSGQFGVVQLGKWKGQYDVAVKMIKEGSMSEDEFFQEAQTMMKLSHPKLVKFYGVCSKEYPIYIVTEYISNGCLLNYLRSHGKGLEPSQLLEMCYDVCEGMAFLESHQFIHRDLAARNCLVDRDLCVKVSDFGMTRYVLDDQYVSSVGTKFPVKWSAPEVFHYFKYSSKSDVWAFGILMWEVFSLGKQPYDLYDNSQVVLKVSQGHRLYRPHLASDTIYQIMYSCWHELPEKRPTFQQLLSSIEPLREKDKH
Procedure, shortened: as §3

Flt 1(h) = target: T4, Flt 1(h) (Homo sapiens, UniProt P17948); test: Upstate KinaseProfiler enzyme assay, Flt 1; conditions: 500 nM compound; read-out: Percent inhibition at 500 nM Flt 1(h)
T4 construct: purchased Upstate Biotechnology (Dundee, UK), KinaseProfiler service
Experimental: as §1, §2

KDR(h) = target: T5, KDR(h) (Homo sapiens, UniProt P35968); test: Upstate KinaseProfiler enzyme assay, KDR; conditions: 500 nM compound; read-out: Percent inhibition at 500 nM KDR(h)
T5 construct: purchased Upstate Biotechnology (Dundee, UK), KinaseProfiler service
Procedure, shortened: as §3

BTK(h) = target: T6, BTK(h) (Homo sapiens, UniProt Q06187); test: Upstate KinaseProfiler enzyme assay, BTK; conditions: 500 nM compound; read-out: Percent inhibition at 500 nM BTK(h)
T6 construct: purchased Upstate Biotechnology (Dundee, UK), KinaseProfiler service
Procedure, shortened: as §3

T6 sequence (Q06187 whole entry): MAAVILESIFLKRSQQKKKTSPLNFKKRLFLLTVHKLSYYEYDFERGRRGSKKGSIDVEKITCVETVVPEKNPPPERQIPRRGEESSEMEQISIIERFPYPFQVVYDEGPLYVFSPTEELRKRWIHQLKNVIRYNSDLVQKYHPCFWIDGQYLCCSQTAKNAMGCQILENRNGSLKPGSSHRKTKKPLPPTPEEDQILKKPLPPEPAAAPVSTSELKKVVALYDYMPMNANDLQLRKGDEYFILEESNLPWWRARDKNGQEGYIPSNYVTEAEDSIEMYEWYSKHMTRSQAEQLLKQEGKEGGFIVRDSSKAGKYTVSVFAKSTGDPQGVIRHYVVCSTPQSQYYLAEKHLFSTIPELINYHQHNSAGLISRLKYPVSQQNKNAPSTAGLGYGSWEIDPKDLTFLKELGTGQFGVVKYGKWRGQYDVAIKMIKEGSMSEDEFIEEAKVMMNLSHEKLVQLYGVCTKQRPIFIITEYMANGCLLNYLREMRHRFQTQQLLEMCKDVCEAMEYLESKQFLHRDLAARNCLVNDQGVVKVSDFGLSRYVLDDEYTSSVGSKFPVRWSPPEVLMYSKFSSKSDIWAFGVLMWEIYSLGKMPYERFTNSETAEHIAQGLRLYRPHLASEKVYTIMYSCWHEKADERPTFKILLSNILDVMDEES
T1 sequence (P35916 25-1363): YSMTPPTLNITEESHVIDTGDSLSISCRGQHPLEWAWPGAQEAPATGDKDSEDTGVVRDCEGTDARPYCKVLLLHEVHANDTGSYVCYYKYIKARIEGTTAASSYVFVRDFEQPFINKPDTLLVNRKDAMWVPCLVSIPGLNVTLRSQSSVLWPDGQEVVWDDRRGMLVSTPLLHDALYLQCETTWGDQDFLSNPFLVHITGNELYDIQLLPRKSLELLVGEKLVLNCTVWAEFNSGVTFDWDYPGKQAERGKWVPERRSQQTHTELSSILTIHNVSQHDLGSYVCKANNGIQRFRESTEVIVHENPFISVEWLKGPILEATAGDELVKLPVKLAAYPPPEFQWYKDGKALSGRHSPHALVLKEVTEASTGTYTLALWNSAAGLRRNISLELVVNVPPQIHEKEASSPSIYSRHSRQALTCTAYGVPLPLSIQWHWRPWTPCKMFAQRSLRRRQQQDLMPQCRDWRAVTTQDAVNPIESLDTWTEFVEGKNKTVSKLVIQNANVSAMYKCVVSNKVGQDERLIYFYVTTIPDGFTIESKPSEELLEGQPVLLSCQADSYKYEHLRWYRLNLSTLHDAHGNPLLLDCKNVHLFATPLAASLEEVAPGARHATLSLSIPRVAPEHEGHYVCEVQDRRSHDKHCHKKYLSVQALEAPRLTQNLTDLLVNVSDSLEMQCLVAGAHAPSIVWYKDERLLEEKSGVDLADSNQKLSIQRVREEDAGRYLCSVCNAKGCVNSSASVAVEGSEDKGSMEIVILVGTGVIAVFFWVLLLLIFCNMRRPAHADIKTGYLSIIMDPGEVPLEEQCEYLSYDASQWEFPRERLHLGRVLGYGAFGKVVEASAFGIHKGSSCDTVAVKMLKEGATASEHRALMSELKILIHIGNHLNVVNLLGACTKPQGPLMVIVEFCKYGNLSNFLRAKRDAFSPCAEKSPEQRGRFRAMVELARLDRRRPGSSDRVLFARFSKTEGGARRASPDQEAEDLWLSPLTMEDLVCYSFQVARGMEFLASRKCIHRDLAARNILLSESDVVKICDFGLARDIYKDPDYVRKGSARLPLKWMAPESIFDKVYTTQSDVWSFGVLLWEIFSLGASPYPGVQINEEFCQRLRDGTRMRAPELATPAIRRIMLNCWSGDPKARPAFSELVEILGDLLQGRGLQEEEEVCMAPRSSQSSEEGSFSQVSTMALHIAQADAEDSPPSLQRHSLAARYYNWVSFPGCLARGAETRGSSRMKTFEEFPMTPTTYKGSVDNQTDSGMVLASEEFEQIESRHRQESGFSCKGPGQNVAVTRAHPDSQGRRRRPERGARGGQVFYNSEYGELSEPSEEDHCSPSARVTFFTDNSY
T2 sequence (P16277 whole entry): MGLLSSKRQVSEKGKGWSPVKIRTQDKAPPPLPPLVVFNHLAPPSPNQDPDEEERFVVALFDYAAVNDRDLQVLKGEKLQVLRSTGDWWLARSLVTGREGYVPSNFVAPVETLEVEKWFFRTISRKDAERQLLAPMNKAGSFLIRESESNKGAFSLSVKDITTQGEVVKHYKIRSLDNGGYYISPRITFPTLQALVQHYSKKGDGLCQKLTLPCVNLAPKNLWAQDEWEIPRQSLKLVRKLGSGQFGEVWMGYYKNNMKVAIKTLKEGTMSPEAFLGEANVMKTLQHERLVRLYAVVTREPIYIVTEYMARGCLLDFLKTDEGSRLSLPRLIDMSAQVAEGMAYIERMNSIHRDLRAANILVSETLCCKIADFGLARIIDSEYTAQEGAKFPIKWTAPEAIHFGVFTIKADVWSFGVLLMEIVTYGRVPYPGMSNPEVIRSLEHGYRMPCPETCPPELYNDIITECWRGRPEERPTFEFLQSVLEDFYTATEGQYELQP
T4 sequence (P17948 27-1338): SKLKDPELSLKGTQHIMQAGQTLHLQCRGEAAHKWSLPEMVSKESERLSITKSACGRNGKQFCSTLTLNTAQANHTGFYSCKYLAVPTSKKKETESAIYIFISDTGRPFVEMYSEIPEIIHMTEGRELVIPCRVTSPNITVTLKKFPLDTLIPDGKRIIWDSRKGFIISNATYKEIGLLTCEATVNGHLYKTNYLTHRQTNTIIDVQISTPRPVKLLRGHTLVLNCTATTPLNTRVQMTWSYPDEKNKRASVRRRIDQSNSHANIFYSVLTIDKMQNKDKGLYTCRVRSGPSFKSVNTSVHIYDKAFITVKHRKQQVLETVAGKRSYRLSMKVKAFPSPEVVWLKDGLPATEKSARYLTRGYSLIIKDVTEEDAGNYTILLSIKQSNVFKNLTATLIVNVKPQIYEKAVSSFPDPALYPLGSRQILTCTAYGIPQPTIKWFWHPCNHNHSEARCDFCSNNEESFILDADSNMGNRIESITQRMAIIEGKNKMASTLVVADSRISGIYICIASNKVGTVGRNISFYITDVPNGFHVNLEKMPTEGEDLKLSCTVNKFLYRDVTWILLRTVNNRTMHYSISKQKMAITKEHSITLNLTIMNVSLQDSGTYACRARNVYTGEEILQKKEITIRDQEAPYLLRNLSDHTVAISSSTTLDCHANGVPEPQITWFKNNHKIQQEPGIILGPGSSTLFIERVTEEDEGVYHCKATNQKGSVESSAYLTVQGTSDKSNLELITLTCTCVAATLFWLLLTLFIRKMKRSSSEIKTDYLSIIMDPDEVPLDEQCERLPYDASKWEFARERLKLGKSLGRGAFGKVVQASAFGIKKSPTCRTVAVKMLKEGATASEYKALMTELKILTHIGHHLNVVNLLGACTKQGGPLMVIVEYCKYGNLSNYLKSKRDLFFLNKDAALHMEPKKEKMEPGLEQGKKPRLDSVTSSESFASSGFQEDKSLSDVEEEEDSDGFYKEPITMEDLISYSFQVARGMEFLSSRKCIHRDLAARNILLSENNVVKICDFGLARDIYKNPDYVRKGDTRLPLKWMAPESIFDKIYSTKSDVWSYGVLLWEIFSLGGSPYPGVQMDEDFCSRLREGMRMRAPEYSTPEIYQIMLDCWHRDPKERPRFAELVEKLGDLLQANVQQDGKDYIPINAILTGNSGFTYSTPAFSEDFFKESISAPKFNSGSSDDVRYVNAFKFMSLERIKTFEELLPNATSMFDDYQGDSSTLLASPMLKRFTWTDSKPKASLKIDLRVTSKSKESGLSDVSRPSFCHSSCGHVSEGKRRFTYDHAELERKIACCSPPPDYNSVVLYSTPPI

Row | SMILES | inhibition at 0.5 µM (Flt 4(h)) [%] | inhibition at 0.5 µM (Blk(m)) [%] | inhibition at 0.5 µM (Bmx(h)) [%] | inhibition at 0.5 µM (Flt 1(h)) [%] | inhibition at 0.5 µM (KDR(h)) [%] | inhibition at 0.5 µM (BTK(h)) [%]
1 | C=CC(=O)Nc1ccc(Sc2nc(Nc3ccc(OCCN4CCOCC4)cc3)ncc2C)cc1 [Compound 290, N-(4-(5-methyl-2-(4-(2-morpholinoethoxy)phenylao)pyrimidin-4-ylthio)phenyl)acrylamide] | 100 | 97 | 97 | 100 | 95 | 94
2 | C=CC(=O)Nc1ccc(Sc2nc(Nc3cccc(N4CCN(C)CC4)c3)ncc2C)cc1 [Compound 243, N-(4-(5-methyl-2-(3-(4-methylpiperazin-1-yl)phenylao)pyrimidin-4-ylthio)phenyl)acrylamide] | 100 | 99 | 96 | 100 | 97 | 97
3 | N#Cc1nnn(Cc2ccc(Sc3ccnc(Nc4ccc(N5CCOCC5)cc4)n3)cc2)n1 [Compound 156, 2-(4-(2-(4-morpholinophenylao)pyrimidin-4-ylthio)benzyl)-2H-tetrazole-5-carbonitrile] | 94 | 41 | 83 | 80 | 97 | 81
4 | C=CC(=O)Nc1ccc(Sc2ccnc(Nc3ccc(S(N)(=O)=O)c(OC)c3)n2)cc1 [Compound 374, N-(4-(2-(3-methoxy-4-sulfamoylphenylao)pyrimidin-4-ylthio)phenyl)acrylamide] | 100 | 96 | 91 | 100 | 96 | 96
5 | C=CC(=O)Nc1ccc(Sc2nc(Nc3ccc(OCCCN(CC)CC)cc3)ncc2C)cc1 [Compound 291, N-(4-(2-(4-(3-(diethylao)propoxy)phenylao)-5-methylpyrimidin-4-ylthio)phenyl)acrylamide] | 100 | 99 | 99 | 100 | 96 | 95
6 | C=CC(=O)Nc1ccc(Sc2nc(Nc3ccc(OC)c(NS(C)(=O)=O)c3)ncc2C)cc1 [Compound 293, N-(4-(2-(4-methoxy-3-(methylsulfonamido)phenylao)-5-methylpyrimidin-4-ylthio)phenyl)acrylamide] | 100 | 30 | 79 | 79 | 95 | 55
7 | C=CC(=O)Nc1ccc(Sc2nc(Nc3ccc(NS(C)(=O)=O)cc3)ncc2C)cc1 [Compound 285, N-(4-(5-methyl-2-(4-(methylsulfonamido)phenylao)pyrimidin-4-ylthio)phenyl)acrylamide] | 98 | 97 | 98 | 95 | 94 | 91
8 | Cc1cnc(Nc2ccc(N3CCOCC3)cc2)nc1Sc1ccc(N2C(=O)CSCC2=O)cc1 [Compound 231, 4-(4-(5-methyl-2-(4-morpholinophenylao)pyrimidin-4-ylthio)phenyl)thiomorpholine-3,5-dione] | 100 | 82 | 99 | 95 | 99 | 91
9 | C=CC(=O)Nc1ccc(Sc2nc(Nc3cccc(CO)c3)ncc2C)cc1 [Compound 280, N-(4-(2-(3-(hydroxymethyl)phenylao)-5-methylpyrimidin-4-ylthio)phenyl)acrylamide] | 100 | 99 | 98 | 100 | 97 | 97
10 | C=CC(=O)Nc1ccc(Sc2nc(Nc3cccc(N4CCOCC4)c3)ncc2F)cc1 [Compound 267, N-(4-(5-fluoro-2-(3-morpholinophenylao)pyrimidin-4-ylthio)phenyl)acrylamide] | 100 | 96 | 89 | 100 | 94 | 94
11 | C=CC(=O)Nc1ccc(Sc2nc(Nc3cccc(NS(C)(=O)=O)c3)ncc2C)cc1 [Compound 288, N-(4-(5-methyl-2-(3-(methylsulfonamido)phenylao)pyrimidin-4-ylthio)phenyl)acrylamide] | 100 | 99 | 100 | 100 | 94 | 98
12 | C=CC(=O)Nc1ccc(Sc2nc(Nc3ccc(N4CCN(C)CC4)cc3)ncc2C)cc1 [Compound 239, N-(4-(5-methyl-2-(4-(4-methylpiperazin-1-yl)phenylao)pyrimidin-4-ylthio)phenyl)acrylamide] | 100 | 99 | 99 | 100 | 96 | 97
13 | C=CC(=O)Nc1ccc(Sc2nc(Nc3ccc(C4CCN(C)CC4)cc3)ncc2C)cc1 [Compound 246, N-(4-(5-methyl-2-(4-(1-methylpiperidin-4-yl)phenylao)pyrimidin-4-ylthio)phenyl)acrylamide] | 100 | 97 | 98 | 100 | 93 | 97
